Measured values from patent US9163256B2, “Mutant receptors and their use in a nuclear receptor-based inducible gene expression system” (priority 2004, dated 2015).
pEC50: −log10 of the molar value. Like-named read-outs stand apart in the source and are kept apart here.

Legend:
[1] = target: CfEcR-DEF mutant M125W (Choristoneura fumiferana, UniProt O77255, M408W); test: GAL4-driven luciferase reporter assay in NIH3T3 cells; assay type: cell-based
Description: (§1) This construct was prepared in the same way as in switch 1.1 above except wild-type CfEcR-DEF was replaced with mutant CfEcR-DEF comprising a ligand binding domain comprising a substitution mutation selected from Table 1 below.
(§2) DNAs were transfected into mouse NIH3T3 cells (ATCC) as follows. Standard methods for culture and maintenance of the cells were followed. Cells were harvested and plated 96-well plates at 2,500 cells per well, in 50 μL of growth medium containing 10% fetal bovine serum (FBS). Twenty-four hours later, the cells were treated with 35 μL of serum-free growth medium containing either dimethylsulfoxide (DMSO; control) or a DMSO solution of ligand. The cells were then transfected using Superfect (Qiagen Inc.) transfection reagent. For each well, 0.625 μL of Superfect was mixed with 14.2 μL of serum-free growth medium. 0.16 μg of reporter construct and 0.04 μg of each receptor construct were added to the transfection reagent mix. The contents of the transfection mix were mixed in a vortex mixer and let stand at room temperature for 30 minutes. At the end of incubation, 15 μL of transfection mix was added to the cells. The cells were maintained at 37° C. and 5% CO2 for 48 hours in 5% FBS.
(§3) Reporter Assays: Cells were harvested 40 hours after adding ligands. 125 μL of passive lysis buffer (part of Dual-Luciferase reporter assay system from Promega Corporation) were added to each well of the […] plate. The plates were placed on a rotary shaker for 15 minutes. Twenty μL of lysate were assayed. Luciferase activity was measured using Dual-Luciferase reporter assay system from Promega Corporation following the manufacturer's instructions. Fold induction (FI) activities were calculated by dividing relative light units (“RLU”) in ligand treated cells with RLU in DMSO treated cells (untreated control).

[2] = target: CfEcR-DEF mutant T52V/A110P (Choristoneura fumiferana, UniProt O77255, A393P/T335V); test: as above; assay type: cell-based; settings: for Rel Max FI: relative to max fold induction of GS-E ligand
Description: as §1, §2, §3

[3] = target: CfEcR-DEF mutant V107I/Y127E/T52V (Choristoneura fumiferana, UniProt O77255, T335V/V390I/Y410E); test: as above; assay type: cell-based; settings: for Rel Max FI: relative to max fold induction of GS-E ligand
Description: as §1, §2, §3

[4] = target: CfEcR-DEF mutant F48N (Choristoneura fumiferana, UniProt O77255, F331N); test: as above; assay type: cell-based
Description: as §1, §2, §3

[5] = target: CfEcR-DEF mutant V107I/Y127E/A110P (Choristoneura fumiferana, UniProt O77255, A393P/V390I/Y410E); test: cell-based; settings: for Rel Max FI: relative to max fold induction of GS-E ligand
Outline: (§4)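 Mutant CfEcR-DEF receptor and GAL4-driven luciferase reporter constructs transfected into mouse NIH3T3 cells with DMSO or ligand added; maintained 48 h at 37° C in 5% FBS, harvested 40 h after ligand addition. Dual-luciferase read-out; fold induction = RLU with ligand / RLU with DMSO.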

[6] = target: CfEcR-DEF mutant L234I (Choristoneura fumiferana, UniProt O77255, L517I); test: cell-based
Outline: as §4

[7] = target: CfEcR-DEF mutant F109N (Choristoneura fumiferana, UniProt O77255, F392N); test: cell-based
Outline: as §4

[8] = target: CfEcR-DEF mutant M54W (Choristoneura fumiferana, UniProt O77255, M337W); test: cell-based
Outline: as §4

[9] = target: CfEcR-DEF mutant V96L (Choristoneura fumiferana, UniProt O77255, V379L); test: cell-based
Outline: as §4

[10] = target: CfEcR-DEF mutant V96S (Choristoneura fumiferana, UniProt O77255, V379S); test: cell-based; settings: for Rel Max FI: relative to max fold induction of GS-E ligand
Outline: as §4

[11] = target: CfEcR-DEF mutant T52L (Choristoneura fumiferana, UniProt O77255, T335L); test: cell-based; settings: for Rel Max FI: relative to max fold induction of GS-E ligand
Outline: as §4

[12] = tested on: CfEcR-DEF mutant N119F; test: GAL4-driven luciferase reporter assay in NIH3T3 cells; assay type: cell-based, Choristoneura fumiferana
Description: as §1, §2, §3

[13] = mutant T52V/A110P, read-out: EC50
[14] = mutant V107I/Y127E/T52V, read-out: EC50
[15] = mutant V107I/Y127E/A110P, read-out: EC50
[16] = NIH3T3, 40 h, read-out: Rel Max FI

Chain of CfEcR-DEF mutant M125W (O77255 entry or part of it M408W): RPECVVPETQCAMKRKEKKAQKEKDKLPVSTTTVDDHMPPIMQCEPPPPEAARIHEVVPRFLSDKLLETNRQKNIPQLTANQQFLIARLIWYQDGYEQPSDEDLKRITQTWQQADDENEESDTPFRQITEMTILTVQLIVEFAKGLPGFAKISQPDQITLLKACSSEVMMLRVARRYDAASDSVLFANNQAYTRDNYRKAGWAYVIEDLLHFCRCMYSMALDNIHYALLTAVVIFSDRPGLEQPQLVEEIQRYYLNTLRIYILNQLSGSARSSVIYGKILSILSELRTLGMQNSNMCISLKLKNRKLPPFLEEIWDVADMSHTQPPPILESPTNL
Chain of CfEcR-DEF mutant M125W (P28702 299-449, further chain): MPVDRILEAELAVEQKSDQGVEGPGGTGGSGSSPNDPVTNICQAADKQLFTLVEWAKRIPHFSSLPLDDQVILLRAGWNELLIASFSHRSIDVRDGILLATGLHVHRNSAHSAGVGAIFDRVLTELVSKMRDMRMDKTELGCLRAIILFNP
Chain of CfEcR-DEF mutant V107I/Y127E/T52V (P28702 299-449): as the sequence (P28702 299-449, further chain) above
Chain of CfEcR-DEF mutant V107I/Y127E/T52V (O77255 entry or part of it T335V/V390I/Y410E): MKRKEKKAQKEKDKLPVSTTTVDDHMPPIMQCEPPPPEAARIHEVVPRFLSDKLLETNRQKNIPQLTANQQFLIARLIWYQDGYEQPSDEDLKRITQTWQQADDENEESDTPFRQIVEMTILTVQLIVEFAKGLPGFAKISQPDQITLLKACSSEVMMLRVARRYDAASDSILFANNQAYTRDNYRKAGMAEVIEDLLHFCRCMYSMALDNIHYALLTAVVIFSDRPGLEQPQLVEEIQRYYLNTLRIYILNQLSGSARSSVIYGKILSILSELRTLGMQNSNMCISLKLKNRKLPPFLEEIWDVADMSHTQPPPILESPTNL
Chain of CfEcR-DEF mutant F109N (P28702 299-449): as the sequence (P28702 299-449, further chain) above
Chain of CfEcR-DEF mutant F109N (O77255 entry or part of it F392N): as the sequence (O77255 entry or part of it M408W) above, with F186N, W202M counted along it
Chain of CfEcR-DEF mutant L234I (P28702 299-449): as the sequence (P28702 299-449, further chain) above
Chain of CfEcR-DEF mutant L234I (O77255 entry or part of it L517I): as the sequence (O77255 entry or part of it M408W) above, with W202M, L311I counted along it
Chain of CfEcR-DEF mutant V107I/Y127E/A110P (P28702 299-449, stated change not applied): as the sequence (P28702 299-449, further chain) above
Chain of CfEcR-DEF mutant V107I/Y127E/A110P (O77255 entry or part of it V390I/A393P/Y410E): as the sequence (O77255 entry or part of it T335V/V390I/Y410E) above, with V117T, A175P counted along it
Chain of CfEcR-DEF mutant F48N (O77255 entry or part of it F331N): as the sequence (O77255 entry or part of it M408W) above, with F125N, W202M counted along it
Chain of CfEcR-DEF mutant F48N (P28702 299-449, further chain): as the sequence (P28702 299-449, further chain) above
Chain of CfEcR-DEF mutant V96L (O77255 entry or part of it V379L): as the sequence (O77255 entry or part of it T335V/V390I/Y410E) above, with V117T, V161L, I172V, E192Y counted along it
Chain of CfEcR-DEF mutant V96L (P28702 299-449, further chain): as the sequence (P28702 299-449, further chain) above
Chain of CfEcR-DEF mutant V96S (O77255 entry or part of it V379S): as the sequence (O77255 entry or part of it T335V/V390I/Y410E) above, with V117T, V161S, I172V, E192Y counted along it
Chain of CfEcR-DEF mutant V96S (P28702 299-449, further chain): as the sequence (P28702 299-449, further chain) above
Chain of CfEcR-DEF mutant T52V/A110P (O77255 entry or part of it T335V/A393P): as the sequence (O77255 entry or part of it T335V/V390I/Y410E) above, with I172V, A175P, E192Y counted along it
Chain of CfEcR-DEF mutant T52V/A110P (P28702 299-449, stated change not applied, further chain): as the sequence (P28702 299-449, further chain) above
Chain of CfEcR-DEF mutant M54W (O77255 entry or part of it M337W): as the sequence (O77255 entry or part of it M408W) above, with M131W, W202M counted along it
Chain of CfEcR-DEF mutant M54W (P28702 299-449, further chain): as the sequence (P28702 299-449, further chain) above
Chain of CfEcR-DEF mutant T52L (P28702 298-449): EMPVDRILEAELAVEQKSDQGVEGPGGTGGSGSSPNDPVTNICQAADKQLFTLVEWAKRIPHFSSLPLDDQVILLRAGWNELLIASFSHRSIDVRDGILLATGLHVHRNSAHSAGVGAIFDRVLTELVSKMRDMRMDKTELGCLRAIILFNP
Chain of CfEcR-DEF mutant T52L (O77255 entry or part of it T335L): as the sequence (O77255 entry or part of it M408W) above, with T129L, W202M counted along it

For CC(C)(O)CC[C@@H](O)[C@](C)(O)[C@H]1CC[C@@]2(O)C3=CC(=O)[C@@H]4C[C@@H](O)[C@@H](O)C[C@]4(C)[C@H]3CC[C@]12C [20E, 20-hydroxyecdysone], the “Rel Max FI” value ([1]; mutant M125W) was 0, the pEC50 ([1]; mutant M125W, read-out: EC50) was < 4.48 and the pEC50 [2, 13] was < 4.48. The “Rel Max FI” value ([2]; mutant T52V/A110P) was 0, the pEC50 [3, 14] was < 4.48 and the “Rel Max FI” value ([3]; mutant V107I/Y127E/T52V) was 0.04. For the same molecule, the “Rel Max FI” value ([4]; mutant F48N) was 0, the pEC50 ([4]; mutant F48N, read-out: EC50) was < 4.48 and the pEC50 [5, 15] was < 4.48. The “Rel Max FI” value ([5]; mutant V107I/Y127E/A110P) was 0.00, the “Rel Max FI” value ([6]; mutant L234I) was 0 and the pEC50 ([6]; mutant L234I, read-out: EC50) was < 4.48. For the same molecule, the “Rel Max FI” value ([7]; mutant F109N) was 0, the pEC50 ([7]; mutant F109N, read-out: EC50) was < 4.48 and the “Rel Max FI” value ([8]; mutant M54W) was 0. The pEC50 ([8]; mutant M54W, read-out: EC50) was < 4.48, the “Rel Max FI” value ([9]; mutant V96L) was 0 and the pEC50 ([9]; mutant V96L, read-out: EC50) was < 4.48. The pEC50 ([10]; mutant V96S, read-out: EC50) was < 4.48, the “Rel Max FI” value ([10]; mutant V96S) was 0.02 and the pEC50 ([11]; mutant T52L, read-out: EC50) was < 4.48. For the same molecule, the “Rel Max FI” value ([11]; mutant T52L) was 0.
For Cc1cc(C)cc(C(=O)N(NC(=O)c2cccc(C(C)C)c2C)C(C)(C)C)c1 [RG-102362, 3,5-Dimethyl-benzoic acid N-tert-butyl-N′-(3-isopropyl-2-methyl-benzoyl)-hydrazide], the pEC50 [1] was 5.46, the Emax [1, 16] was 44% and the pEC50 [2] was 6.49. For the same molecule, the Emax [2, 16] was 94%, the pEC50 [3] was > 8.00 and the Emax [3, 16] was 73%. It also gave a pEC50 [4] of 5.77, an Emax [4, 16] of 66% and a melting point of 182.5 °C. It also gave a pEC50 [5] of 7.00, an Emax [5, 16] of 63% and a pEC50 [6] of 5.61. The Emax [6, 16] was 44%, the pEC50 [7] was 5.73 and the Emax [7, 16] was 40%. It also gave a pEC50 [8] of 5.91, an Emax [8, 16] of 44% and a pEC50 [9] of 5.57. It also gave an Emax [9, 16] of 58%, a pEC50 [10] of 5.68 and an Emax [10, 16] of 57%. The pEC50 [11] was 6.48 and the Emax [11, 16] was 61%.
With CC(C)CC[C@@H](O)[C@](C)(O)[C@H]1CC[C@@]2(O)C3=CC(=O)[C@@H]4C[C@@H](O)[C@@H](O)C[C@]4(C)[C@H]3CC[C@]12C [PonA, ponasterone A] the “Rel Max FI” value ([1]; mutant M125W) was 0, the pEC50 ([1]; mutant M125W, read-out: EC50) was < 4.48 and the pEC50 [2, 13] was < 4.48. The “Rel Max FI” value ([2]; mutant T52V/A110P) was 0, the pEC50 [3, 14] was ~6.00 and the “Rel Max FI” value ([3]; mutant V107I/Y127E/T52V) was 0.67. For the same molecule, the “Rel Max FI” value ([4]; mutant F48N) was 0.17, the pEC50 ([4]; mutant F48N, read-out: EC50) was ~4.70 and the “Fold increase over WT” value ([12]; 1.6 nM ligand) was 1.33. The “Fold increase over WT” value ([12]; 8 nM ligand) was 1.7, the “Fold increase over WT” value ([12]; 40 nM ligand) was 9.42 and the “Fold increase over WT” value ([12]; 200 nM ligand) was 6.50. The “Fold increase over WT” value ([12]; 1 μM ligand) was 3.00, the pEC50 [5, 15] was < 4.48 and the “Rel Max FI” value ([5]; mutant V107I/Y127E/A110P) was 0.01. The “Rel Max FI” value ([6]; mutant L234I) was 0.56, the pEC50 ([6]; mutant L234I, read-out: EC50) was ~5.15 and the “Rel Max FI” value ([7]; mutant F109N) was 0. The pEC50 ([7]; mutant F109N, read-out: EC50) was < 4.48, the “Rel Max FI” value ([8]; mutant M54W) was 0.46 and the pEC50 ([8]; mutant M54W, read-out: EC50) was ~5.00. For the same molecule, the “Rel Max FI” value ([9]; mutant V96L) was 0.49, the pEC50 ([9]; mutant V96L, read-out: EC50) was 5.13 and the pEC50 ([10]; mutant V96S, read-out: EC50) was ~5.70. The “Rel Max FI” value ([10]; mutant V96S) was 0.92, the pEC50 ([11]; mutant T52L, read-out: EC50) was 5.30 and the “Rel Max FI” value ([11]; mutant T52L) was 0.54.
